From patent publication US20230183215A1, “Notch Inhibitors and Uses Thereof” (StemSynergy Therapeutics, Inc., priority 2020, published 2023)
Counter-ions that a name gives are not always drawn.

What was measured:
Notch1 = target: T1, Notch1 (Homo sapiens, UniProt P46531); assay: Notch1 Reporter Assay (CSL-responsive luciferase, doxycycline-induced Notch-ICD in 293A cells); assay type: cell-based; details: 25 ng/mL Dox, 24 h, luciferase normalized to cell viability
T1 construct: pLV[Tet]-Puro-TRE3G>Notch1-ICD; expressed in transfected cells; host or cells: 293A cells
Experimental: 293A cells expressing 1) pCMV-Tet-On 3G, 2) pLV[Tet]-Puro-TRE3G>Notch1-ICD, 3) pLV[Tet]-Puro-TRE3G>Notch2-ICD, 4) pLV[Tet]-Puro-TRE3G>Notch3-ICD, and 5) pCSL-RElement-Luc were used. When Doxycycline is added, the Tet-ON gene activates expression of hNotch1ICD, which together with endogenous NTC components binds to CSL responsive elements (pCSL-RElement-Luc) and expresses luciferase. 1×10^4 cells are plated in 100 μL (96-well format). 24 h later, compounds (10 mM stock in DMSO) are diluted in DMSO to 200×, then added (5 ul into 1 mL) to cell culture media containing 50 ng/mL Dox. This is then added 1:1 to cells. Final DMSO=0.25%, Dox=25 ng/mL. After 24 h, media is discarded, and cells are lysed in passive lysis buffer (Promega). Cells are rocked at room temperature for 15 min and then lysate is divided for luciferase assay (Luciferase Assay System, Promega) and cell viability (CellTiter Glo 2.0, Promega). Raw luciferase is normalized to cell viability, and then scaled to DMSO wells. Results are analyzed and IC50's are determined in GraphPad by nonlinear regression curve fitting (4 parameter) of dose response curves.

[1] = system: OE33 Esophageal Adenocarcinoma cell line; assay: OE33 Colony Formation Assay; assay type: cell-based; details: Homo sapiens, 200 cells/well, compound every 48 hours for 7 days, CellTiter-Glo
Experimental: OE33 Colony Formation Assay:
The OE33 Esophageal Adenocarcinoma cell line was cultured and plated into 96-well tissue culture plates under sparse conditions (200 cells/well). Test compounds were serially diluted in DMSO and then into culture media (final DMSO concentration=0.1%). Compound/media was then added to cells every 48 hours for a total of 7 days. Clonogenic growth was assessed using the CellTiter-Glo reagent, according to manufacturer (Promega) specifications. Percent inhibition was calculated as the percent of luminescence normalized to control (0.1% DMSO) wells. Nonlinear regression curve fitting was performed using GraphPad Prism software to determine EC50's.

T1 sequence (P46531 1754-2555 limits assumed): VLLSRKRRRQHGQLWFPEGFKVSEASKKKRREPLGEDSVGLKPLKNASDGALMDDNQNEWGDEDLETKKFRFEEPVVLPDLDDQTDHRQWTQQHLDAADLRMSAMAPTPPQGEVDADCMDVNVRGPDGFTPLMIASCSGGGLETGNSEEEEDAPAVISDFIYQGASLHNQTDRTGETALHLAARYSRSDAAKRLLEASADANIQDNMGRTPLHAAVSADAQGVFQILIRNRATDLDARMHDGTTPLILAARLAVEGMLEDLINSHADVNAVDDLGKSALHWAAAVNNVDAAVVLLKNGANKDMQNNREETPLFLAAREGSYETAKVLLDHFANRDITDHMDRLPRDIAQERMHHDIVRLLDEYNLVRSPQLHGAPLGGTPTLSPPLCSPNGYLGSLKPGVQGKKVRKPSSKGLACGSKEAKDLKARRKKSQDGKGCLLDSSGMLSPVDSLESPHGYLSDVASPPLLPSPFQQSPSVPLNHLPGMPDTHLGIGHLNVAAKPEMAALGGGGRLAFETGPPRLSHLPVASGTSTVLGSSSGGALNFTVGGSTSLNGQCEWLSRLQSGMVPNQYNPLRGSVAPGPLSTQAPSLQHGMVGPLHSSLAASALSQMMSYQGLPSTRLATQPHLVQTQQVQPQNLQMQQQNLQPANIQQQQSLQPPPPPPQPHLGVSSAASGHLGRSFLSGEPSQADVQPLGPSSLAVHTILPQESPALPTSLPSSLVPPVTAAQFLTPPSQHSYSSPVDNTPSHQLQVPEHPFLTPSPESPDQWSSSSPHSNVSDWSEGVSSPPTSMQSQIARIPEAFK

SMILES	IC50 (Notch1)	EC50 [1]
COc1cc(-c2cc(C(F)(F)F)cc3c2n(C)c(=O)n3CC(=O)Nc2ccc(F)cc2)c(F)cc1OCc1nnc[nH]1 [SSTN-603, 2-(4-(4-((4H-1,2,4-triazol-3-yl)methoxy)-2-fluoro-5-methoxyphenyl)-3-methyl-2-oxo-6-(trifluoromethyl)-2,3-dihydro-1H-benzo[d]imidazol-1-yl)-N-(4-fluorophenyl)acetamide]	7.4 µM	3.8 µM
COC(=O)c1cc(OCc2nnc[nH]2)c(OC)cc1-c1cc(C(F)(F)F)cc2c1n(C)c(=O)n2CC(=O)Nc1ccc(F)cc1 [SSTN-604, Methyl 5-((4H-1,2,4-triazol-3-yl)methoxy)-2-(1-(2-((4-fluorophenyl)amino)-2-oxoethyl)-3-methyl-2-oxo-6-(trifluoromethyl)-2,3-dihydro-1H-benzo[d]imidazol-4-yl)-4-methoxybenzoate hydrochloride salt]	10.4 µM	18.9 µM
COc1cc(-c2cc(C(F)(F)F)cc3c2n(C)c(=O)n3CC(=O)Nc2ccc(F)nc2)cc(F)c1OCc1nnc[nH]1 [SSTN-609, 2-(4-(4-((4H-1,2,4-triazol-3-yl)methoxy)-3-fluoro-5-methoxyphenyl)-3-methyl-2-oxo-6-(trifluoromethyl)-2,3-dihydro-1H-benzo[d]imidazol-1-yl)-N-(6-fluoropyridin-3-yl)acetamide]	10.3 µM	18.8 µM
COc1cc(-c2cc(C(F)(F)F)cc3c2n(C)c(=O)n3CC(=O)Nc2cccnc2F)cc(F)c1OCc1nnc[nH]1 [SSTN-612, 2-(4-(4-((4H-1,2,4-triazol-3-yl)methoxy)-3-fluoro-5-methoxyphenyl)-3-methyl-2-oxo-6-(trifluoromethyl)-2,3-dihydro-1H-benzo[d]imidazol-1-yl)-N-(2-fluoropyridin-3-yl)acetamide]	13.2 µM	17.1 µM
COc1cc(-c2cc(C(F)(F)F)cc3c2n(C)c(=O)n3CC(=O)N(C)c2ccc(Cl)cc2)cc(F)c1OCc1nnc[nH]1 [compound 424, 2-(4-(4-((4H-1,2,4-triazol-3-yl)methoxy)-3-fluoro-5-methoxyphenyl)-3-methyl-2-oxo-6-(trifluoromethyl)-2,3-dihydro-1H-benzo[d]imidazol-1-yl)-N-(4-chlorophenyl)-N-methylacetamide hydrochloride]	3.6 µM	1.4 µM
COc1cc(-c2cc(C(F)(F)F)cc3c2n(C)c(=O)n3CC(=O)N(C)c2ccc(C(F)(F)F)cc2)cc(F)c1OCc1nnc[nH]1 [compound 439, 2-(4-(4-((4H-1,2,4-triazol-3-yl)methoxy)-3-fluoro-5-methoxyphenyl)-3-methyl-2-oxo-6-(trifluoromethyl)-2,3-dihydro-1H-benzo[d]imidazol-1-yl)-N-methyl-N-(4-(trifluoromethyl)phenyl)acetamide hydrochloride]	3.5 µM	1.2 µM
COc1cc(-c2cc(C(F)(F)F)cc3c2n(C)c(=O)n3CC(=O)N(C)c2ccc(F)cc2)cc(F)c1OCc1nnc[nH]1 [compound 440, 2-(4-(4-((4H-1,2,4-triazol-3-yl)methoxy)-3-fluoro-5-methoxyphenyl)-3-methyl-2-oxo-6-(trifluoromethyl)-2,3-dihydro-1H-benzo[d]imidazol-1-yl)-N-(4-fluorophenyl)-N-methylacetamide hydrochloride]	3.1 µM	4.6 µM
COc1cc(-c2cc(C(F)(F)F)cc3c2n(C)c(=O)n3CC(=O)N(C)c2ccc(F)cc2F)cc(F)c1OCc1nnc[nH]1 [compound 447, 2-(4-(4-((4H-1,2,4-triazol-3-yl)methoxy)-3-fluoro-5-methoxyphenyl)-3-methyl-2-oxo-6-(trifluoromethyl)-2,3-dihydro-1H-benzo[d]imidazol-1-yl)-N-(2,4-difluorophenyl)-N-methylacetamide hydrochloride]	3.3 µM	2.8 µM
COc1cc(-c2cc(C(F)(F)F)cc3c2n(C)c(=O)n3CC(=O)N(C)c2cccc(Cl)c2)cc(F)c1OCc1nnc[nH]1 [compound 448, 2-(4-(4-((4H-1,2,4-triazol-3-yl)methoxy)-3-fluoro-5-methoxyphenyl)-3-methyl-2-oxo-6-(trifluoromethyl)-2,3-dihydro-1H-benzo[d]imidazol-1-yl)-N-(3-chlorophenyl)-N-methylacetamide hydrochloride]	2.4 µM	2.1 µM
COc1cc(-c2cc(C(F)(F)F)cc3c2n(C2CC2)c(=O)n3CC(=O)N(C)c2ccc(F)cc2)cc(F)c1OCc1nnc[nH]1 [compound 464, 2-(4-(4-((4H-1,2,4-triazol-3-yl)methoxy)-3-fluoro-5-methoxyphenyl)-3-cyclopropyl-2-oxo-6-(trifluoromethyl)-2,3-dihydro-1H-benzo[d]imidazol-1-yl)-N-(4-fluorophenyl)-N-methylacetamide hydrochloride]	1.7 µM	1.3 µM
COc1cc(-c2cc(C(F)(F)F)cc3c2n(C)c(=O)n3CC(=O)Nc2ccc(F)cc2)cc(F)c1OCc1nnc[nH]1 [compound 465, 2-(4-(4-((4H-1,2,4-triazol-3-yl)methoxy)-3-fluoro-5-methoxyphenyl)-3-methyl-2-oxo-6-(trifluoromethyl)-2,3-dihydro-1H-benzo[d]imidazol-1-yl)-N-(4-fluorophenyl)acetamide hydrochloride]	8.6 µM	5.2 µM
